Measurements: ChEMBL document CHEMBL1136475, “Synthesis and analgesic activity of hydrochlorides and quaternary ammoniums of epibatidine incorporated with amino acid ester” (Bioorg Med Chem Lett, 2003)

Key:
[1] = target: Neuronal acetylcholine receptor; experiment: Binding affinity towards nicotinic acetylcholine receptor (nAChR); format: protein-complex assay
Mus musculus [2] = experiment: In vivo analgesic activity using acetic acid writhing test in mice at a dose of 20 mg/kg by sc administration; format: functional; details: route subcutaneous
Mus musculus [3] = experiment: In vivo analgesic activity using acetic acid writhing test in mice at a dose of 10 mg/kg by sc administration; format: functional; details: route subcutaneous
[4] = Toxicity in rats was determined by sc administration at a dose of 10 mg/kg; format: organism-based; parameters: dose 10 mg/kg, route subcutaneous; details: rat, in vivo, read-out: Rate of death
Mus musculus [5] = experiment: In vivo analgesic activity using acetic acid writhing test in mice at a dose of 1 mg/kg by sc administration; format: functional; details: route subcutaneous
[6] = Toxicity in rats was determined by sc administration at a dose of 1 mg/kg; format: organism-based; parameters: dose 1 mg/kg, route subcutaneous; details: rat, in vivo, read-out: Rate of death
[7] = Toxicity in rats was determined by sc administration at a dose of 5 mg/kg; format: organism-based; parameters: dose 5 mg/kg, route subcutaneous; details: rat, in vivo, read-out: Rate of death
Mus musculus [8] = experiment: In vivo analgesic activity using acetic acid writhing test in mice at a dose of 5 mg/kg by sc administration; format: functional; details: route subcutaneous
[9] = Toxicity in rats was determined by sc administration at a dose of 20 mg/kg; format: organism-based; parameters: dose 20 mg/kg, route subcutaneous; details: rat, in vivo, read-out: Rate of death

SMILES | Inhibitory rate (Mus musculus [2]) [%] | mortality [9] [%] | further results
c1cncc(CN2C3CCC2CC3)c1 |  |  | Ki [1]: 98 nM
CCOC(=O)CCC(NC(=O)C1C(c2ccc(Cl)nc2)C2CCC1[N+]2(C)Cc1ccccc1)C(=O)OCC.[I-] (configuration not stated) | 1 |  | Inhibitory rate (Mus musculus [3]): 99.3%; mortality [4]: 80%
CCOC(=O)C1CSCN1C(=O)C1C(c2ccc(Cl)nc2)C2CCC1[N+]2(C)Cc1ccccc1.[I-] (configuration not stated) |  |  | Inhibitory rate (Mus musculus [5]): 9.1%; mortality [6]: 0%; mortality [7]: 0%; Inhibitory rate (Mus musculus [8]): 49.8%
CCOC(=O)CNC(=O)C1C(c2ccc(Cl)nc2)C2CCC1[N+]2(C)Cc1ccccc1.[I-] (configuration not stated) | 66.6 | 0 | 
C[N+]1(Cc2ccccc2)CCN(C(=O)CCCCCCC(=O)N2CC[N+](C)(Cc3ccccc3)CC2)CC1.[Br-].[Br-] | 80.3 |  | 
CCOC(=O)CCC(NC(=O)C1C(c2ccc(Cl)nc2)C2CCC1N2Cc1ccccc1)C(=O)OCC.Cl (configuration not stated) | 27.1 | 0 | 
CCOC(=O)CNC(=O)C1C(c2ccc(Cl)nc2)C2CCC1N2Cc1ccccc1.Cl (configuration not stated) | 26.1 | 0 | 
CCOC(=O)C1CSCN1C(=O)C1C(c2ccc(Cl)nc2)C2CCC1N2Cc1ccccc1.Cl (configuration not stated) | 12.3 | 0 | 
